Measurements taken from PMC7824535, “Inhibitory Effect of Antidesma bunius Fruit Extract on Carbohydrate Digestive Enzymes Activity and Protein Glycation In Vitro” (Antioxidants, 2020).
Converted amounts (≈) assume the structure as drawn.

Biological target: T1, intestinal maltase
T1 construct: gene Mgam; native, supernatant of rat intestinal acetone powder, not purified; maltase activity of several enzymes
Assay: glucose release by glucose oxidase method, […] nm
Type: biochemical
Conditions: maltose substrate (86 mM stock, 30 µL), 0.1 M phosphate buffer pH 6.9, 37 °C, 30 min; crude rat intestinal extract

**Q.** Which “IC50 Values / Maltase” value does the source give for `C[C@H]1O[C@H](O[C@H]2[C@H](O)[C@@H](O)[C@@H](O[C@H]3[C@H](O)[C@@H](O)C(O)O[C@@H]3CO)O[C@@H]2CO)[C@H](O)[C@@H](O)[C@@H]1N[C@H]1C=C(CO)[C@@H](O)[C@H](O)[C@H]1O` (stereo partly shown) [Acarbose] here?
**A.** The value was 0.89 ± 0.07 µg/mL (≈ 1.38 µM).
